DBAASP
≈ marks a conversion by molar mass, not a printed value.

What was measured:
Test in all cases: ≥ marks a high value that may be exact or a test limit, other limits are often not marked, values filed in µg/mL are converted to µM
[1] = system: Xanthomonas axonopodis pv. phaseoli ATCC 9563
[2] = system: Escherichia coli BL21
[3] = system: Streptococcus pyogenes GAS M1T1
[4] = system: Pseudomonas syringae
[5] = system: Klebsiella pneumoniae
[6] = system: Pseudomonas aeruginosa ATCC 15442
[7] = system: Enterobacter cloacae
[8] = system: Staphylococcus aureus
[9] = system: Staphylococcus aureus ATCC 25923
[10] = system: Acinetobacter baumannii ATCC 15308
[11] = system: Streptococcus pneumoniae
[12] = system: Citrobacter sp.
[13] = system: Escherichia coli ATCC 25922
[14] = system: Enterococcus faecalis ATCC 19433
[15] = system: Staphylococcus aureus LAC

Structure (SMILES) | MIC [5] [µM] | MIC [6] [µM] | MIC [7] [µM] | MIC [8] [µM] | MIC [9] [µM] | MIC [10] [µM] | MIC [11] [µM] | MIC [12] [µM] | MIC [13] [µM] | MIC [15] [µM] | other results
CC[C@H](C)[C@H](NC(=O)[C@H](CCC(=O)O)NC(=O)[C@H](CC(N)=O)NC(=O)[C@H](CCCCN)NC(=O)[C@H](CC(C)C)NC(=O)[C@H](Cc1ccc(O)cc1)NC(=O)[C@H](CCC(N)=O)NC(=O)[C@H](CCCN=C(N)N)NC(=O)[C@@H](NC(=O)[C@@H](NC(=O)[C@H](CCCCN)NC(=O)[C@H](CCCCN)NC(=O)[C@H](Cc1c[nH]c2ccccc12)NC(=O)[C@H](C)N)[C@@H](C)O)[C@@H](C)CC)C(=O)N[C@@H](CCCCN)C(=O)N[C@@H](CCCCN)C(=O)N[C@@H](CCCCN)C(=O)N[C@@H](Cc1c[nH]c2ccccc12)C(=O)N[C@@H](CCCN=C(N)N)C(=O)N[C@@H](CCCCN)C(=O)N[C@@H](C)C(=O)N[C@H](C(=O)N[C@H](C(=O)N[C@@H](C)C(=O)N[C@@H](Cc1c[nH]c2ccccc12)C(=O)O)[C@@H](C)CC)C(C)C [AWKKTIRQYLKNEIKKKWRKAVIAW] | – | – | – | – | – | – | – | – | – | – | MIC [1]: 1 µM (≈ 3.19 µg/mL); MIC [2]: 2 µM (≈ 6.37 µg/mL); MIC [3]: 8 µM (≈ 25.5 µg/mL); MIC [4]: 8 µM (≈ 25.5 µg/mL)
CC(C)C[C@H](NC(=O)[C@@H](N)CCCN=C(N)N)C(=O)N1CCC[C@H]1C(=O)N[C@@H](Cc1c[nH]c2ccccc12)C(=O)N[C@@H](CCCN=C(N)N)C(=O)N[C@@H](Cc1c[nH]c2ccccc12)C(=O)N1CCC[C@H]1C(=O)N[C@@H](CCCN=C(N)N)C(=O)N[C@@H](CCCN=C(N)N)C(=O)N1CCC[C@H]1C(=O)N[C@@H](Cc1c[nH]c2ccccc12)C(=O)N[C@@H](CCCN=C(N)N)C(=O)N[C@@H](CCCN=C(N)N)C(N)=O [RLPWRWPRRPWRR] | > 130 | ≥ 65.2 | ≥ 130 | 130 (≈ 250 µg/mL) | 65.2 (≈ 125 µg/mL) | ≥ 130 | ≥ 130 | ≥ 130 | 130 (≈ 250 µg/mL) | – | –
CC[C@H](C)[C@H](NC(=O)[C@H](CCSC)NC(=O)[C@H](C)NC(=O)[C@@H]1CCCN1C(=O)[C@@H](NC(=O)[C@H](CCCN=C(N)N)NC(=O)[C@H](CCCCN)NC(=O)[C@@H](NC(=O)[C@H](CC(C)C)NC(=O)CNC(=O)CNC(=O)[C@H](CC(C)C)NC(=O)[C@@H](N)Cc1ccccc1)[C@@H](C)CC)C(C)C)C(=O)N[C@H]1CSSC[C@@H](C(=O)O)NC(=O)[C@H](CCCCN)NC(=O)[C@H](CCCCN)NC(=O)[C@H](CCCN=C(N)N)NC(=O)[C@H](C(C)C)NC(=O)[C@H](C)NC1=O [FLGGLIKRVPAMICAVRKKC] | > 113 | ≥ 113 | ≥ 113 | > 113 | > 113 | ≥ 113 | ≥ 113 | ≥ 113 | > 113 | – | –
CC[C@@H](C)[C@@H](NC(=O)[C@@H](CCCN=C(N)N)NC(=O)[C@@H](CCCN=C(N)N)NC(=O)[C@@H](Cc1c[nH]c2ccccc12)NC(=O)[C@@H](CCC(N)=O)NC(=O)[C@H](N)C(C)C)C(=O)N[C@H](CCCN=C(N)N)C(=O)N[C@@H](C(=O)N[C@H](Cc1c[nH]c2ccccc12)C(=O)N[C@@H](C(=O)N[C@@H](C(=O)N[C@H](CCCN=C(N)N)C(=O)O)[C@H](C)CC)C(C)C)C(C)C [VQWRRIRVWVIR] | – | – | – | – | – | – | – | – | – | – | MIC [14]: ≥ 154 µM
CC[C@H](C)[C@H](N)C(=O)N[C@H](C(=O)N[C@H](C(=O)N[C@H](C(=O)N[C@@H](CCCN=C(N)N)C(=O)N[C@@H](CCCN=C(N)N)C(=O)N[C@@H](CCCN=C(N)N)C(=O)N[C@@H](CCCN=C(N)N)C(=O)O)[C@@H](C)CC)[C@@H](C)CC)[C@@H](C)CC [IIIIRRRR] | – | – | – | – | – | – | – | – | > 117 | ≥ 117 | –
NC(N)=NCCC[C@H](NC(=O)[C@H](CCCN=C(N)N)NC(=O)[C@H](CCCN=C(N)N)NC(=O)[C@H](CCCN=C(N)N)NC(=O)[C@H](Cc1ccc(O)cc1)NC(=O)[C@H](Cc1ccc(O)cc1)NC(=O)[C@H](Cc1ccc(O)cc1)NC(=O)[C@@H](N)Cc1ccc(O)cc1)C(=O)O [YYYYRRRR] | – | – | – | – | – | – | – | – | > 98.8 | ≥ 98.8 | –
